This note sets out measurements from patent US11613531B2, “Inhibitors of RHO associated coiled-coil containing protein kinase” (Kadmon Corporation, LLC, priority 2017, dated 2023).

In test [1] the target is Recombinant ROCK2 (amino acids 1-552) (Homo sapiens (Human), UniProt O75116). Kind of test: Z′-Lyte kinase assay, ROCK2. It is filed as biochemical. The conditions noted are these: for inhibition at 1 µM: 1 μM compound, read-out: ROCK2 % inh. @ [conc]. The protocol: Determination of Compound's ROCK Inhibitory Activity In Vitro (Z'Lyte Assay).
Sequence of Recombinant ROCK2 (amino acids 1-552) (O75116 1-552): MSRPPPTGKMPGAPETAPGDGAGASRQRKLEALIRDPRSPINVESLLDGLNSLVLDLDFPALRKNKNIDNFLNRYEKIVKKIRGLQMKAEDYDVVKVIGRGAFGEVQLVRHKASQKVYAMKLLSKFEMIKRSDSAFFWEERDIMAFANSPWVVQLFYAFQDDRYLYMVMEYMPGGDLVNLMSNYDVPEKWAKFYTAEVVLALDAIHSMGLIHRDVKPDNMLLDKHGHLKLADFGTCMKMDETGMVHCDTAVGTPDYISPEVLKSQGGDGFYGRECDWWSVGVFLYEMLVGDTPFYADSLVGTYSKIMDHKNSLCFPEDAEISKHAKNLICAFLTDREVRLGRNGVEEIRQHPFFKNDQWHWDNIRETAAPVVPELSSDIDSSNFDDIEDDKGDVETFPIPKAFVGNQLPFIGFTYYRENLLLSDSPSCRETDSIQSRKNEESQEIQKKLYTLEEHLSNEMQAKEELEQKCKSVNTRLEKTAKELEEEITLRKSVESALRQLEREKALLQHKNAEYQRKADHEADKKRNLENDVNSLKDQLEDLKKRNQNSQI
Recombinant ROCK1 (amino acids 1-535) and ROCK2 (amino acids 1-552) proteins were purchased from ThermoFisher Scientific. Compound's activities were measured by Z′-lyte kinase kit (ThermoFisher Scientific) and IC50 was calculated
In vitro activities for the compounds were measured with Z′-lyte kinase kit (ThermoFisher Scientific). The percent inhibition rate was calculated by normalizing the kinase activity value obtained with 1 μM compound treatment against DMSO control value and then applied to the formula, [1-(compound/DMSO)]×100%. IC50s were calculated using the nonlinear regression curve fit function of the GraphPad Prism software with kinase activities data measured with 9 points 2-fold serial dilution of compounds treatment. In cell pMLC IC50s were calculated with data obtained from A7R5 cell experiments. A7R5 cells were treated with 9 points 2-fold serial dilution of compounds and ppMlc (T18/S19) levels were determined to calculate cellular IC50 values of the compounds using the nonlinear regression curve fit function of the GraphPad Prism software. NIH3T3 cells stably expressing ACTA2-promoter-driven-luciferase were applied to measure ROCK compounds functional IC50s in cells. Cells were plated in 96 well plates to confluence and treated with 9 points serial dilution of compounds in combination with TGFβ1 for 24 hr. Luciferase activities were measured and compound's IC50s were calculated using the nonlinear regression curve fit function of the GraphPad Prism software.

Test [2] relates to ppMlc (T18/S19) levels in A7R5 cells. In words: A7R5 in-cell ELISA (pMLC). It is filed as cell-based, Rat. The conditions noted are these: Rattus norvegicus, A7R5, A7R5 cells; for inhibition at 10 µM: 10 μM compound; for inhibition at 10 µM / inhibition at 1 µM: read-out: pMLC % inh A7R5 @ [conc]; for IC50: ppMlc (T18/S19); for inhibition at 1 µM: 1 μM compound. The procedure, abridged: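 Cellular IC50 came from a nonlinear regression fit of ppMlc (T18/S19) signal, read by colorimetric in-cell ELISA on fixed cells. Rat A7R5 aortic smooth muscle cells had been exposed for 90 min to compounds in 9-point 2-fold serial dilution, 24 h after seeding.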
In general terms: ELISA stands for enzyme-linked immunosorbent assay.

Where two headings read alike, the source gives them in different places.

Turning to `c1cc2[nH]ncc2cc1Nc1nc(N2CCCNCC2)nc2c1CCCC2` [Example 9, 2-(1,4-diazepan-1-yl)-N-(1H-indazol-5-yl)-5,6,7,8-tetrahydroquinazolin-4-amine], in test [1], the inhibition at 1 µM came out at 98.7%. In test [2], the inhibition at 10 µM is 93.5% and the IC50 (usually the concentration that inhibits the measured activity by half) came out at 1200 nM.
Take `c1cc2[nH]ncc2cc1Nc1nc(N2CCCNCC2)nc2c1CSC2` [Example 12, 2-(1,4-diazepan-1-yl)-N-(1H-indazol-5-yl)-5,7-dihydrothieno[3,4-d]pyrimidin-4-amine]: the inhibition at 1 µM in test [1] was found to be 97.3%. For the same compound, in test [2], the inhibition at 10 µM is 95% and the IC50 turned out to be 839 nM.
The corresponding values for `Cc1nc(N2CCNC(C)C2)nc(Nc2ccc3[nH]ncc3c2)c1C` (stereo not drawn) [Example 13, N-(5,6-dimethyl-2-(3-methylpiperazin-1-yl)pyrimidin-4-yl)-1H-indazol-5-amine] are 58.1%, 51.1% and 1490 nM.
Consider `CCC1CN(c2nc(C)c(C)c(Nc3ccc4[nH]ncc4c3)n2)CCN1` (stereo not drawn) [Example 14, N-(2-(3-ethylpiperazin-1-yl)-5,6-dimethylpyrimidin-4-yl)-1H-indazol-5-amine], for which the inhibition at 1 µM in test [1] turned out to be 33.3%. In addition, the inhibition at 10 µM in test [2] came to 48.9%.
For `Cc1nc(N2CCNC(C(C)C)C2)nc(Nc2ccc3[nH]ncc3c2)c1C` (stereo not drawn) [Example 15, N-(2-(3-isopropylpiperazin-1-yl)-5,6-dimethylpyrimidin-4-yl)-1H-indazol-5-amine], in that order: 8% and 26.4%.
For `Cc1nc(N2CCNC(C(C)C)CC2)nc(Nc2ccc3[nH]ncc3c2)c1C` (stereo not drawn) [Example 19, N-(2-(5-isopropyl-1,4-diazepan-1-yl)-5,6-dimethylpyrimidin-4-yl)-1H-indazol-5-amine], in that order: 4.6% and 31.8%.
`Cc1nc(N2CCCNC(C)C2)nc(Nc2ccc3[nH]ncc3c2)c1C` (stereo not drawn) [Example 22, N-(5,6-dimethyl-2-(3-methyl-1,4-diazepan-1-yl)pyrimidin-4-yl)-1H-indazol-5-amine]: the inhibition at 1 µM in test [1] was 76.5%. In test [2], the inhibition at 10 µM was 54.2% and the IC50 came out at 1390 nM.
Regarding `CCC1CCN(c2nc(C)c(C)c(Nc3ccc4[nH]ncc4c3)n2)CCN1` (stereo not drawn) [Example 23, N-(2-(5-ethyl-1,4-diazepan-1-yl)-5,6-dimethylpyrimidin-4-yl)-1H-indazol-5-amine], in test [1], the inhibition at 1 µM stood at 29.5%. For the same compound, the inhibition at 10 µM in test [2] was found to be 46.4%.
For the compound `Cc1nc(N2CCNC(C)CC2)nc(Nc2ccc3[nH]ncc3c2)c1C` (stereo not drawn) [Example 25, N-(5,6-dimethyl-2-(5-methyl-1,4-diazepan-1-yl)pyrimidin-4-yl)-1H-indazol-5-amine], in test [1], the inhibition at 1 µM came to 52.9%. The inhibition at 10 µM in test [2] came to 48.3%.
Consider `CCC1CN(c2nc(C)c(C)c(Nc3ccc4[nH]ncc4c3)n2)CCCN1` (stereo not drawn) [Example 26, N-(2-(3-ethyl-1,4-diazepan-1-yl)-5,6-dimethylpyrimidin-4-yl)-1H-indazol-5-amine], for which, in test [1], the inhibition at 1 µM is 33.5%. Also, in test [2], the inhibition at 10 µM worked out at 39.9%.
As to `Cc1nc(N2CCNCC2C)nc(Nc2ccc3[nH]ncc3c2)c1C` (stereo not drawn) [Example 27, N-(5,6-dimethyl-2-(2-methylpiperazin-1-yl)pyrimidin-4-yl)-1H-indazol-5-amine], the inhibition at 1 µM was 71.3% in test [1] and 16.8% in test [2].
The corresponding values for `Cc1nc(N2CCNCC(C)C2)nc(Nc2ccc3[nH]ncc3c2)c1C` (stereo not drawn) [Example 28, N-(5,6-dimethyl-2-(6-methyl-1,4-diazepan-1-yl)pyrimidin-4-yl)-1H-indazol-5-amine] are 45% and 11.8%.
Take `COc1cnc(N2CCNCC2)nc1Nc1ccc2[nH]ncc2c1` [Example 30, N-(5-methoxy-2-(piperazin-1-yl)pyrimidin-4-yl)-1H-indazol-5-amine]: the inhibition at 1 µM in test [1] was determined as 90.6%. In test [2], the inhibition at 10 µM is 56.4% and the IC50 came to 1120 nM.
The corresponding values for `COc1cnc(N2CCNC(C)C2)nc1Nc1ccc2[nH]ncc2c1` (stereo not drawn) [Example 31, N-(5-methoxy-2-(3-methylpiperazin-1-yl)pyrimidin-4-yl)-1H-indazol-5-amine] are 78.1%, 58% and 1850 nM.
Turning to `COc1cnc(N2CCCNC(C(C)C)C2)nc1Nc1ccc2[nH]ncc2c1` (stereo not drawn) [Example 32, N-(2-(3-isopropyl-1,4-diazepan-1-yl)-5-methoxypyrimidin-4-yl)-1H-indazol-5-amine], the inhibition at 1 µM in test [1] was 44.6%. Also, in test [2], the inhibition at 10 µM is 53.7% and the half-maximal inhibitory concentration (IC50) turned out to be 3950 nM.
Consider `c1cc(Nc2ccc(-c3cn[nH]c3)cc2)nc(N2CCNCC2)n1` [Example 38, N-(4-(1H-pyrazol-4-yl)phenyl)-2-(piperazin-1-yl)pyrimidin-4-amine], for which, in test [1], the IC50 came out at 451 nM. Moreover, the inhibition at 1 µM in test [1] was found to be 63.1%; in test [2], 9.2%.
`c1cc(Nc2ccc(-c3cnn[nH]3)cc2)nc(N2CCNCC2)n1` [Example 41, N-(4-(1H-1,2,3-triazol-5-yl)phenyl)-2-(piperazin-1-yl)pyrimidin-4-amine]: in test [1] (9 points 2-fold serial dilution), the IC50 is over 10000 nM. For the same compound, the inhibition at 10 µM in test [2] was found to be 9.96%.
For the compound `c1cc(Nc2ccc(-c3cn[nH]c3)cc2)nc(N2CCCNCC2)n1` [Example 44, N-(4-(1H-pyrazol-4-yl)phenyl)-2-(1,4-diazepan-1-yl)pyrimidin-4-amine], the IC50 in test [1] came to 220 nM. The inhibition at 1 µM came to 72.7% in test [1] and 13.2% in test [2].
On to `COc1cnc(N2CCNC(C(C)C)CC2)nc1Nc1ccc2[nH]ncc2c1` (stereo not drawn) [Example 47, N-(2-(5-isopropyl-1,4-diazepan-1-yl)-5-methoxypyrimidin-4-yl)-1H-indazol-5-amine], for which the inhibition at 1 µM in test [1] came out at 33.1%. For the same compound, the inhibition at 10 µM in test [2] came out at 45.6%.
For `CCC1CN(c2ncc(OC)c(Nc3ccc4[nH]ncc4c3)n2)CCN1` (stereo not drawn) [Example 49, N-(2-(3-ethylpiperazin-1-yl)-5-methoxypyrimidin-4-yl)-1H-indazol-5-amine], the inhibition at 1 µM in test [1] was 50.6%. In test [2], the inhibition at 10 µM turned out to be 46.3%.
As for `COc1cnc(N2CCNC(C(C)C)C2)nc1Nc1ccc2[nH]ncc2c1` (stereo not drawn) [Example 51, N-(2-(3-isopropylpiperazin-1-yl)-5-methoxypyrimidin-4-yl)-1H-indazol-5-amine], in test [1], the inhibition at 1 µM worked out at 29.3%. Moreover, the inhibition at 10 µM in test [2] was determined as 39.4%.
With `COc1cnc(N2CCNC(C)CC2)nc1Nc1ccc2[nH]ncc2c1` (stereo not drawn) [Example 53, N-(5-methoxy-2-(5-methyl-1,4-diazepan-1-yl)pyrimidin-4-yl)-1H-indazol-5-amine], the inhibition at 1 µM in test [1] was found to be 74.5%. In addition, in test [2], the inhibition at 10 µM amounted to 51.3% and the IC50 is 1720 nM.
The corresponding values for `CCC1CCN(c2ncc(OC)c(Nc3ccc4[nH]ncc4c3)n2)CCN1` (stereo not drawn) [Example 54, N-(2-(5-ethyl-1,4-diazepan-1-yl)-5-methoxypyrimidin-4-yl)-1H-indazol-5-amine] are 58.5%, 50.1% and 1700 nM.
As for `COc1cnc(N2CCCNC(C)C2)nc1Nc1ccc2[nH]ncc2c1` (stereo not drawn) [Example 55, N-(5-methoxy-2-(3-methyl-1,4-diazepan-1-yl)pyrimidin-4-yl)-1H-indazol-5-amine], the inhibition at 1 µM in test [1] was found to be 83.3%. For the same compound, in test [2], the inhibition at 10 µM was 52.2% and the IC50 amounted to 998 nM.
